# Entries after “also recorded” stand apart in the source; their conditions may differ. Read-outs that look alike come from different tables or passages of the source. Square brackets hold non-standard residues; d marks the D form. Ends that are not written are not given here. Peptide text beside a SMILES is read from it. * marks the point of attachment. AMC = Cc1cc(=O)oc2cc(N*)ccc12; pGlu = O=C1CC[C@@H](C(=O)O)N1; Boc = CC(C)(C)OC(=O)*; OBn = c1ccc(CO*)cc1
# Key:
# [1] = system: Benz-I (protease specific for basic amino acid residue); experiment: Behavior of Benz-I against various inhibitors (residual activity); assay type: biochemical, Kluyveromyces lactis IFO 1903; details: 25° C. 30 minutes, control lot = 100
# [2] = system: Benz-II (protease specific for basic amino acid residue); experiment: Behavior of Benz-II against various inhibitors (residual activity); assay type: biochemical, Kluyveromyces lactis IFO 1903; details: 25° C. 30 minutes, control lot = 100
# [3] = system: protease specific for basic amino acid residue from Sporobolomyces odrus IFO 1597; experiment: Behavior of Sporobolomyces protease against various inhibitors (residual activity); assay type: biochemical
# protease B = experiment: Activation and inhibition of protease B (stated properties); assay type: biochemical, Kluyveromyces lactis IFO 1903
# protease A = experiment: Activation and inhibition of protease A (stated properties); assay type: biochemical, Sporobolomyces odrus IFO 1597
# Method: The enzymes was incubated in the absence of any substrate in standard reaction mixtures containing various inhibitors at 25° C. for 30 minutes. After adding the substrate, the residual activity of each enzyme was determined.
# The enzyme was reacted in the standard reaction mixture while varying the type and concentration of surfactants.
# The activity of the enzyme was determined in the presence of 0.1% of EDTA while varying the concentration of CaCl2. […] The concentration of free CaCl2 was calculated from the apparent dissociation constant (K1) of EDTA for CaCl2 (log K1 =7.3).
# [4] = system: Benz-I (protease specific for basic amino acid residue); experiment: Cleavage of peptides by Benz-I, HPLC and amino acid composition of fragments; assay type: biochemical, Kluyveromyces lactis IFO 1903
# Method: The composition of the employed reaction mixture and the examination conditions were as follows. Namely, 500 μl of a reaction mixture containing 25 μmol of tris hydrochloride buffer solution (pH 7.0), 0.25 μmol of CaCl2, 5 mg of Lubrol PX, 100 μg of NaN3, each peptide at various concentrations and Benz-I at various concentrations was allowed to react at 30° C. for 20 hours.
# 50-μl portions of the reaction mixture were sampled after the reaction for 0 and 20 hours and 50 μl of a reaction terminating agent comprising 0.2% of TFA and 10 mM of EDTA was added thereto. The resulting mixture was analyzed by HPLC. The HPLC was conducted by CH3 CN gradient elution with the use of an Ultron NC18 column (0.45×15 cm) or a TSK gel ODS-80TM column (0.46×25 cm) in the presence of 0.1% of TFA.
# The residual reaction mixture was chromatographed under the same conditions as those employed in the above analysis and main peaks were fractionated. The fractionated eluate was evaporated to dryness on a centrifugal evaporator and decomposed with hydrochloric acid at 110° C. for 24 hours. Then each fragment was assumed from the amino acid composition.
# [5] = system: Benz-I (protease specific for basic amino acid residue); assay type: biochemical, Kluyveromyces lactis IFO 1903
# Method: Benz-I was incubated in the presence of 10 mM of EDTA at 4° C. for one hour. When the enzyme was completely inactivated, the culture was dialyzed against 10 mM tris hydrochloride buffer solution (pH 7.0) containing 0.2% of Lubrol PX to thereby completely remove the EDTA. The enzyme mixture thus dialyzed was examined with respect to the recovery of the activity in reaction mixtures containing 0.5 mM of various metal ions.
# [6] = system: protease specific for basic amino acid residue from Sporobolomyces odrus IFO 1597; assay type: biochemical
# Method: The enzyme was treated in the standard reaction mixture containing 1 mM of EDTA and free from any substrate at 25° C. for 30 minutes. Various metal ions were added thereto each in such an amount as to give a concentration of 1.5 mM and the mixture was incubated at 30° C. for five minutes. Then the activity of each case was determined.
# [7] = system: Benz-I (protease specific for basic amino acid residue); experiment: Substrate specificity of Benz-I with fluorescent substrates; assay type: biochemical, Kluyveromyces lactis IFO 1903; details: activity for Boc-Gln-Arg-Arg-MCA being 100; standard conditions
# Method: (§1) 1 ml of a reaction mixture containing 50 μmol of Tris-hydrochloride buffer (pH 7.0), 10 mg of Lubrol PX, 0.5 μmol of calcium chloride, 0.1 μmol of Boc-Gln-Arg-Arg-MCA, wherein Boc represents a t-butyloxycarbonyl group while MCA represents 4-methylcoumarin-7-amide and the enzyme is allowed to react at 30° C. The fluorescence (excition wavelength: 380 nm, emmision wavelength: 460 nm) originating from the 7-amino-4-methylcoumarin (AMC) thus formed is monitored with the lapse of time. The amount of the enzyme activity capable of catalyzing the release of 1 n mol of AMC per one minute is defined as 1 U. The specific activity is represented by U per mg of protein. The amount of the protein is determined by measurement the absorbance at […] as E^1% of protein being assumed to be 10.
# (§2) The activities of Benz-I and Benz-II were determined under standard conditions with the use of various fluorescent substrates. The activity for each substrate was expressed by relative activity with the activity for Boc-Gln-Arg-Arg-MCA being 100.
# [8] = system: Benz-II (protease specific for basic amino acid residue); experiment: Substrate specificity of Benz-II with fluorescent substrates; assay type: biochemical, Kluyveromyces lactis IFO 1903; details: activity for Boc-Gln-Arg-Arg-MCA being 100; standard conditions
# Method: as §1, §2
# [9] = system: protease specific for basic amino acid residue from Sporobolomyces odrus IFO 1597; experiment: Substrate specificity of Sporobolomyces protease with fluorescent substrates; assay type: biochemical; details: activity for Boc-Gln-Arg-Arg-MCA being 100; standard conditions
# Method: A reaction mixture containing 50 μmol of tris hydrochloride buffer solution (pH 7.0), 10 mg of Lubrol PX, 0.5 μmol of calcium chloride, 0.1 μmol of Boc-Gln-Arg-Arg-MCA, wherein Boc represents a t-butyloxycalbonyl group while MCA represents 4-methylcoumarin-7-amide and the enzyme is allowed to react at 30° C. The fluorescence (excition wavelength: 380 nm, emission wavelength: 460 nm) originating from the 7-amino-4-methylcoumarin (AMC) thus formed is monitored. The amount of the enzyme capable of catalyzing the release of 1 nmol of AMC per one minute is defined as 1 U.
# The activities of the enzyme for various fluorescent substrates were determined under standard reaction conditions.
# [10] = 200 mU Benz-I, 50 nmol peptide, 30° C., 20 hours
# [11] = Ca2+ +, inhibitor 1 mM, 25° C. 30 minutes
# [12] = Benz-I treated with 10 mM EDTA, dialyzed, reaction mixture with 0.5 mM metal ion, control lot = 100
# [13] = EDTA treatment +, reaction system EDTA (1 mM) +, metal 1.5 mM, 30° C. five minutes
molecule,measurement,setting,value
O=C(O)CN(CCOCCOCCN(CC(=O)O)CC(=O)O)CC(=O)O [ethylene glycol bis(2-aminoethyl ether)tetraacetic acid],Residual activity of Benz-I,[1]; inhibitor 1 mM,53
same,Residual activity of Benz-I,[1]; inhibitor 5 mM,12
same,Residual activity of Benz-II,[2]; inhibitor 1 mM,43
same,Residual activity of Benz-II,[2]; inhibitor 5 mM,12
same,relative activity (residual),"[3]; Ca2+ --, inhibitor 1 mM, 25° C. 30 minutes",10%
same,inhibition of protease B,protease B; statement in words,inhibited
same,inhibition of protease A,protease A; statement in words,inhibited
CC[C@H](C)[C@H](NC(=O)[C@H](Cc1c[nH]c2ccccc12)NC(=O)[C@@H]1CCCN1C(=O)[C@H](CCCNC(=N)N)NC(=O)[C@H](CCCCN)NC(=O)CNC(=O)[C@@H]1CCC(=O)N1)C(=O)N[C@@H](CC(C)C)C(=O)O [Xenopsin] ([pGlu]GKRPWIL-OH),Fragment obtained (assumed from amino acid composition) after reaction with Benz-I,[4]; [10],pGlu-Gly-Lys-Arg
YGGFMRRVGRPEWWMDYQKRYGGFL [3200-dalton Adrenal Peptide E],Fragment obtained (assumed from amino acid composition) after reaction with Benz-I,[4],^1 Tyr-Gly-Gly-Phe-Met-Arg-^7 Arg; also recorded: ^21 Tyr-Gly-Gly-Phe-^25 Leu
O=S(=O)([O-])[O-].[Cu+2] [copper sulfate],Residual activity of Benz-I,[1]; inhibitor 1 mM,0.2
same,Residual activity of Benz-II,[2]; inhibitor 1 mM,0.6
same,relative activity (residual),[3]; [11],2%
same,inhibition of protease B,protease B; statement in words,inhibited
same,inhibition of protease A,protease A; statement in words,inhibited
[Cl][Hg][Cl] [mercury chloride],Residual activity of Benz-I,[1]; inhibitor 1 mM,0
same,Residual activity of Benz-II,[2]; inhibitor 1 mM,0
same,relative activity (residual),[3]; [11],0%
same,inhibition of protease B,protease B; statement in words,inhibited
same,inhibition of protease A,protease A; statement in words,inhibited
"N=C(N)c1ccc(CS(=O)(=O)F)cc1 [p-amidino-PMSF, p-amidinophenylmethanesulfonyl fluoride]",Residual activity of Benz-I,[1]; inhibitor 1 mM,0
same,Residual activity of Benz-II,[2]; inhibitor 1 mM,0
same,relative activity (residual),[3]; [11],10%
same,inhibition of protease B,protease B; statement in words,inhibited
same,inhibition of protease A,protease A; statement in words,inhibited
[Cl][Ni][Cl] [nickel chloride],Relative activity,[5]; [12],16.1%
same,Relative activity,[6]; [13],58%
YGGFMRRVRPE [BAM-12P],Fragment obtained (assumed from amino acid composition) after reaction with Benz-I,[4],Val-Gly-Arg-Pro-Glu
O=C(O)CN(CCN(CC(=O)O)CC(=O)O)CC(=O)O [ethylenediaminetetraacetic acid],Relative activity,[5],0.36%
same,Relative activity,[5]; 10000 µM,0.09%
same,relative activity (residual),"[3]; pH 7, 30 min, 1000 µM",2%
same,Relative activity,[6],3%
same,Relative activity,"[6]; pH 7, 1000 µM",0%
same,inhibition of protease B,protease B,inhibited
same,inhibition of protease A,protease A,inhibited
[Cl][Mn][Cl] [manganese chloride],Relative activity,[5]; [12],33.9%
same,Relative activity,[6]; [13],53%
Cc1cc(=O)oc2cc(NC(=O)[C@H](CCCNC(=N)N)NC(=O)[C@H](CCCNC(=N)N)NC(=O)CNC(=O)OC(C)(C)C)ccc12 [Boc--Gly--Arg--Arg--MCA],Relative activity of Benz-I for substrate,[7],19.8
same,Relative activity of Benz-II for substrate,[8],19.7
same,Activity (relative) for substrate,[9],32%
[Cl][Co][Cl] [cobalt chloride],Relative activity,[5]; [12],21.1%
same,Relative activity,[6]; [13],57%
Cc1cc(=O)oc2cc(NC(=O)[C@H](CCCNC(=N)N)NC(=O)[C@H](CCCCN)NC(=O)[C@H](CC(C)C)NC(=O)OC(C)(C)C)ccc12 [Boc--Leu--Lys--Arg--MCA] (Boc-Leu-Lys-Arg-{AMC}),Relative activity of Benz-I for substrate,[7],123
same,Relative activity of Benz-II for substrate,[8],127
same,Activity (relative) for substrate,[9],75%
[Ca+2].[Cl-].[Cl-] [calcium chloride],Relative activity,[5]; [12],93.1%
same,Relative activity,[6]; [13],107%
same,activation of protease B,protease B; statement in words,activated
same,activation of protease A,protease A; statement in words,best activated
RKRSRKE [protein kinase-related peptide],Fragment obtained (assumed from amino acid composition) after reaction with Benz-I,[4]; [10],Ser-Arg-Lys-Glu
[Cl-].[Cl-].[Zn+2] [zinc chloride],Residual activity of Benz-I,[1]; inhibitor 1 mM,7
same,Residual activity of Benz-II,[2]; inhibitor 1 mM,7
same,relative activity (residual),[3]; [11],1%
same,inhibition of protease B,protease B; statement in words,inhibited
same,inhibition of protease A,protease A; statement in words,inhibited
[Cl-].[Cl-].[Mg+2] [magnesium chloride],Relative activity,[5]; [12],43.6%
same,Relative activity,[6]; [13],12%
O=C(O)c1cc[c]([Hg][Cl])cc1 [p-chloromercuribenzoic acid],Residual activity of Benz-I,[1]; inhibitor 50 μM,1
same,Residual activity of Benz-II,[2]; inhibitor 50 μM,3
same,relative activity (residual),"[3]; Ca2+ +, inhibitor 50 μM, 25° C. 30 minutes",36%
same,inhibition of protease B,protease B; statement in words,inhibited
same,inhibition of protease A,protease A; statement in words,inhibited
"Cc1cc(=O)oc2cc(NC(=O)[C@H](CCCNC(=N)N)NC(=O)[C@H](CCCNC(=N)N)NC(=O)[C@H](CCC(N)=O)NC(=O)OC(C)(C)C)ccc12 [Boc--Gln--Arg--Arg--MCA, Boc-Gln-Arg-Arg-MCA] (Boc-Gln-Arg-Arg-{AMC})",Relative activity of Benz-I for substrate,[7],100
same,Relative activity of Benz-II for substrate,[8],100
same,Activity (relative) for substrate,[9],100%
Cc1cc(=O)oc2cc(NC(=O)[C@H](CCCNC(=N)N)NC(=O)[C@@H]3CCCN3C(=O)[C@H](CC(=O)OCc3ccccc3)NC(=O)OC(C)(C)C)ccc12 [Boc--Asp(OBzl)--Pro--Arg--MCA] (Boc-Asp(OBn)-Pro-Arg-{AMC}),Relative activity of Benz-I for substrate,[7],12.3
same,Relative activity of Benz-II for substrate,[8],7.8
same,Activity (relative) for substrate,[9],5%
Cc1cc(=O)oc2cc(NC(=O)[C@H](CCCCN)NC(=O)[C@H](CCCCN)NC(=O)[C@H](CCC(=O)O)NC(=O)OC(C)(C)C)ccc12 [Boc--Glu--Lys--Lys--MCA] (Boc-Glu-Lys-Lys-{AMC}),Relative activity of Benz-I for substrate,[7],1.3
same,Relative activity of Benz-II for substrate,[8],0.9
same,Activity (relative) for substrate,[9],0%
Cc1cc(=O)oc2cc(NC(=O)[C@H](CCCNC(=N)N)NC(=O)[C@@H](NC(=O)[C@H](CC(C)C)NC(=O)OC(C)(C)C)[C@@H](C)O)ccc12 [Boc--Leu--Thr--Arg--MCA] (Boc-Leu-Thr-Arg-{AMC}),Relative activity of Benz-I for substrate,[7],20.0
same,Relative activity of Benz-II for substrate,[8],13.9
same,Activity (relative) for substrate,[9],3%
Triton X-100,activation of protease B,protease B; statement in words,activated
same,activation of protease A,protease A; statement in words,activated
